{"source": "patent US6376666B1", "about": "(Nauchno-Issledovatelsky Institut Farmakologii Rossiiskoi …, priority 1994, dated 2002)", "key": {"[1]": {"tested_on": "aconitine arrhythmia", "experiment": "animal or person", "type": "in vivo, rats", "conditions": "Rattus norvegicus, iv, read-out: Aconitine arrhythmia ED50", "protocol": "Aconitine arrhythmia. The aconitine arrhythmia was induced in concious rats weighing 180-200 g by the injection in tail vein of the aconitine sulfate solution at dose range of […]. […] The tested compounds were administered i.v. 3 min prior aconitine injection. The ED50 value was calculated according to Litchfield's method."}, "[2]": {"tested_on": "ventricular fibrillations", "experiment": "ventricular fibrillation, 7-min occlusion and reperfusion of coronary artery in anesthetized rats", "type": "in vivo", "conditions": "anesthetized rats, 1 mg/kg i.v., 18 animals", "protocol": "The experiments were conducted in male rats weighing 180-240 g and anesthetized with nembutal (60 mg/kg i.v.) with open chest and artificial respiration. The occlusion of the left coronary artery was performed 1-2 min after experiment beginning with following reperfusion after 7 min. During this period time according to literature data [Krzeminski T., Grzyb J., Kurcok A., Brus R.: Pol.J.Pharmacol., 1992, 44, Suppl., p.169-170] the maximum number of ventricular fibrillations (70-100%) were registered. The ECG in the 2nd standard lead was recorded in “Mingograph-81”. The number of ventricular fibrillations during occlusion and reperfusion periods, the life menacing arrhythmia (fibrillation+paroxysmal ventricular tachycardia) and total number of arrhythmias were calculated. The known antiarrhythmic drug bonnecor was used as the reference agent [Grigorieva E. K., Gorbunova V. V. in: “New antiarrhythmic drug—bonnecor (the pharmacology and clinical usage)”, M., 1993, p.64-67]. The compounds were injected i.v. at the following doses: bonnecor—1,0 mg/kg, compound IX—2,0 mg/kg, compound XX—1,0 mg/kg. The control animals were administered with the equivalent volume of physiological solution (1,0 ml/kg). 4 series of experiments were carried out in 80 rats. The results were assessed according to the method of point scale: the absence of arrhythmia—0 point, extrasystole—1 point, paroxysmal ventricular tachycardia—2 points, ventricular fibrillation—3 points, fibrillation observed during the occlusion of coronary vessel—4 points. For statistical analysis the Fisher's exact probability and Wilconson's methods were used.\n[Krzeminski T., Grzyb J., Kurcok A., Brus R.: Pol.J.Pharmacol., 1992, 44, Suppl., p.169-170] have shown that 7 min occlusion with following reperfusion of coronary artery in anesthetized rats produced the ventricular fibrillation (68-100%). Defibrotide and prostacycline decreased the number of fibrillations. We have studied the antifibrillator activity of some derivatives of 2-mercaptbenzimidazole in this model with disturbances of heart rhythm. Bonnecor (1,0 mg/kg) was used as the reference drug. It is well known that this agent produces apronouncedantifibrillatoryactivity [Grigorieva E. K., Gorbunova V. V. in: “New antiarrhythmic drug-bonnecor (the pharmacology and clinical usage)”, M., 1993, p.64-67]."}, "[3]": {"tested_on": "ventricular disturbances of heart rhythm", "experiment": "arrhythmia in concious dogs according to Harris", "type": "in vivo", "conditions": "for % of the ectopic contractions / heart rate: concious dogs according to Harris, compound XX 1.0 mg/kg i.v., individual dogs", "protocol": "The arrhythmia in concious dogs according to Harris. The experiments were conducted in mongrel dogs of either sex weighing 9-14 kg. Under anesthesia (40 mg/kg of nembutal i.v.) and artificial respiration the two-step occlusion of the left anterior descending coronary artery was performed. The constant ECG disturbances of the heart rhythm were recorded after 24 hours. […] T-Student' test was used for statistical calculation."}, "[4]": {"tested_on": "male outbred mice", "experiment": "potentiation of sleep induced by sodium thiopental", "type": "in vivo", "protocol": "The possible hypnotic effects of choosen drugs was estimated according to method of potentiation of sleep induced by sodium thiopental. The male outbred mice weighing 20-25 g were injected i.p. with sodium thiopental at dose of 70 mg/kg. Two parameters were estimated: latent time of sleeping and duration of sleep. The used compounds were administered i.p. 30 min prior injection of sodium thiopental."}, "[5]": {"conditions": "10 min after compound injection"}, "[6]": {"conditions": "15 min after compound injection"}, "[7]": {"conditions": "20 min after compound injection"}, "[8]": {"conditions": "30 min after compound injection"}, "[9]": {"conditions": "40 min after compound injection"}, "[10]": {"conditions": "50 min after compound injection"}, "[11]": {"conditions": "0.01 mg/kg i.p. 30 min before thiopental 70 mg/kg i.p."}, "[12]": {"conditions": "0.1 mg/kg i.p. 30 min before thiopental 70 mg/kg i.p."}, "[13]": {"conditions": "1.0 mg/kg i.p. 30 min before thiopental 70 mg/kg i.p."}, "[14]": {"conditions": "5.0 mg/kg i.p. 30 min before thiopental 70 mg/kg i.p."}, "[15]": {"conditions": "10.0 mg/kg i.p. 30 min before thiopental 70 mg/kg i.p."}}, "note": "“And” between values parts separate entries of the source, which are not always exact repeats. Equal values may be shown once. “Also recorded” adds a separate entry of the source. Marks after values point to notes of the source that are not given here."}
{"molecule": "CN(C)CCSc1nc2ccccc2n1CCc1ccccc1", "note": "[Compound XX, 1-(β-Phenylethyl)-2-[2-(dimethylamino)ethylthio]-benzimidazole]", "values": [{"measurement": "ED50", "setting": "[1]", "value": "< 0.5", "unit": "mg/kg"}, {"measurement": "Number of VF (ventricular fibrillations)", "setting": "[2]; control 15 of 24", "value": "7^"}, {"measurement": "Number of LHA (lethality hazardous arrhythmia)", "setting": "[2]; control 22 of 24", "value": "11*"}, {"measurement": "Total numbers of arrhyt.", "setting": "[2]; control 24 of 24", "value": "13**"}, {"measurement": "Severity of arrhythmias", "setting": "[2]; control 66", "value": "34* points"}, {"measurement": "% of the ectopic contractions", "setting": "[3]; 3 min after compound injection", "value": "64% and 30% and 72% and 80%"}, {"measurement": "heart rate", "setting": "[3]; 3 min after compound injection", "value": "93 beats/min and 172 beats/min and 145 beats/min and 103 beats/min"}, {"measurement": "% of the ectopic contractions", "setting": "[3]; 5 min after compound injection", "value": "52% and 20% and 63% and 82%"}, {"measurement": "heart rate", "setting": "[3]; 5 min after compound injection", "value": "89 beats/min and 167 beats/min and 138 beats/min and 98 beats/min"}, {"measurement": "% of the ectopic contractions", "setting": "[3]; [5]", "value": "50% and 18% and 60% and 81%"}, {"measurement": "heart rate", "setting": "[3]; [5]", "value": "102 beats/min and 163 beats/min and 129 beats/min and 75 beats/min"}, {"measurement": "% of the ectopic contractions", "setting": "[3]; [6]", "value": "51% and 0% and 58% and 91%"}, {"measurement": "heart rate", "setting": "[3]; [6]", "value": "88 beats/min and 159 beats/min and 125 beats/min and 100 beats/min"}, {"measurement": "% of the ectopic contractions", "setting": "[3]; [7]", "value": "56% and 0% and 66% and 92%"}, {"measurement": "heart rate", "setting": "[3]; [7]", "value": "74 beats/min and 155 beats/min and 132 beats/min and 78 beats/min"}, {"measurement": "% of the ectopic contractions", "setting": "[3]; [8]", "value": "62% and 10% and 74% and 91%"}, {"measurement": "heart rate", "setting": "[3]; [8]", "value": "94 beats/min and 168 beats/min and 135 beats/min and 117 beats/min"}, {"measurement": "% of the ectopic contractions", "setting": "[3]; [9]", "value": "66% and 8% and 79% and 97%"}, {"measurement": "heart rate", "setting": "[3]; [9]", "value": "105 beats/min and 185 beats/min and 148 beats/min and 106 beats/min"}, {"measurement": "% of the ectopic contractions", "setting": "[3]; [10]", "value": "63% and 10% and 81% and 94%"}, {"measurement": "heart rate", "setting": "[3]; [10]", "value": "128 beats/min and 198 beats/min and 159 beats/min and 109 beats/min"}, {"measurement": "antiarrhythmic effect, in words", "setting": "[3]; concious dogs with ventricular disturbances of heart rhythm, i.v.", "value": "pronounced antiarrhythmic effect"}, {"measurement": "effect on heart rate, in words", "setting": "[3]; concious dogs, i.v.", "value": "pronounced bradycardia"}, {"measurement": "tolerability / side effects, in words", "setting": "[3]; concious dogs, i.v.", "value": "well tolerated by the animals; also recorded: no side effects"}]}
{"molecule": "CCOc1ccc2nc(SCCN3CCOCC3)[nH]c2c1", "note": "[XII, 2-[2-(Morpholino)ethylthio]-5-ethoxybenzimidazole]", "values": [{"measurement": "duration of sleep after sodium thiopental", "setting": "[4]; [11]", "value": "76.4 ± 16.7", "unit": "min"}, {"measurement": "latent time of sleep after sodium thiopental", "setting": "[4]; [11]", "value": "1.86 ± 0.27", "unit": "s"}, {"measurement": "duration of sleep after sodium thiopental", "setting": "[4]; [12]", "value": "54.5 ± 9.9", "unit": "min"}, {"measurement": "latent time of sleep after sodium thiopental", "setting": "[4]; [12]", "value": "1.94 ± 0.18", "unit": "s"}, {"measurement": "duration of sleep after sodium thiopental", "setting": "[4]; [13]", "value": "67.9 ± 4.3", "unit": "min"}, {"measurement": "latent time of sleep after sodium thiopental", "setting": "[4]; [13]", "value": "2.78 ± 0.17", "unit": "s"}, {"measurement": "duration of sleep after sodium thiopental", "setting": "[4]; [14]", "value": "71.7 ± 14.6", "unit": "min"}, {"measurement": "latent time of sleep after sodium thiopental", "setting": "[4]; [14]", "value": "2.21 ± 0.17", "unit": "s"}, {"measurement": "duration of sleep after sodium thiopental", "setting": "[4]; [15]", "value": "92.4 ± 9.9", "unit": "min"}, {"measurement": "latent time of sleep after sodium thiopental", "setting": "[4]; [15]", "value": "2.28 ± 0.24", "unit": "s"}]}
